Reference: publication PMC11073428, “The activity of pyrazolo[4,3-e][1,2,4]triazine and pyrazolo[4,3-e]tetrazolo[1,5-b][1,2,4]triazine sulphonamide derivatives in monolayer and spheroid breast cancer cell cultures” (Journal of Enzyme Inhibition and Medicinal Chemistry, 2024)

Experiments:
[1] = test system: MDA-MB-231 breast cancer cells; assay: Apoptosis, annexin V-FITC/PI flow cytometry, MDA-MB-231; type: cell-based, human; settings: 24 h
Experimental: The analysis was performed using flow cytometry Apoptosis Detection Kit II (BD Biosciences, San Diego, CA) as described previously.

caspase 9 in MCF-7 cells = assay: Activity of caspase 9, MCF-7; type: cell-based, human; settings: MCF-7, 0.5 µM, 24 h
Experimental: (§1) MCF-7 and MDA-MB-231 cells were plated in six-well plates at density 1 × 10^6 and cultured in DMEM for 24 h. […] Then to identify the involvement of caspase family in inducing apoptosis, cells were pre-treated with Z-VAD-FMK (100 µM) 2 h before adding compounds[28]. The activation of caspases 9, 10, and 3/7 was detected as described before.

ROS in MDA-MB-231 cells = assay: Total ROS activity, flow cytometry, MDA-MB-231; type: cell-based, human; settings: for cells with ROS: 24 h
Experimental: In brief, cells were washed two times with cold PBS solution and incubated in a solution of ROS Green dye in Assay Buffer and incubated for 1 h in optimal cell growth parameters, protected from light. After incubation, cells were washed with assay buffer. Subsequently, fluorescence emission intensities at 490 nm excitation and 520 nm emission were recorded in 500 μL assay buffer using flow cytometer BD FACSCanto II flow cytometer and FACSDiva software (BD Biosciences Systems, San Jose, CA).

MCF-7 spheroids = assay: 3D spheroid culture, MCF-7; type: cell-based, human
Experimental: (§2) The 3D cell culture was carried out with 6-Well Bio-Assembler Kit in accordance with the manufacturer’s instructions (Greiner Bio-One GmbH, Frickenhausen, Germany). First, MCF-7 and MDA-MB-231 were cultured in 2D using procedure and supplied to 80% confluency and treated with nanoshuttle at concentration of 1 µL/10 000 cell and incubated overnight. Following incubation, the medium was removed, and the cells were detached by trypsin–EDTA solution and resuspended in DMEM. The cells were counted using Scepter 2.0 Handheld Automated Cell Counter (Merck, Darmstadt, Germany) and plated at the concentration 1 × 10^6 cells per well in six-well plate. Then, cells were gently tilted in the flask to evenly distribute the nanoparticle and incubated (37 °C, 5% CO2, 95–98% humidity) for 1 h with magnet on the top of the plate. The cells self-assemble to spheroids. The obtained 3D cell culture was incubated until analysis.
(§3) The visualisation of the morphological changes in 3D cell culture of MCF-7 and MDA-MB-231 was evaluated using microscope (Nikon Eclipse Ti, Tokyo, Japan).
(§4) The mean ± standard deviation (SD) for all data is presented. One-way and two-way analysis of variance (ANOVA) was conducted followed by Dunnett’s test. GraphPad 8.0.1 Prism software (GraphPad Software, San Diego, CA) was used for calculation. The analysis of spheroids area was carried out using ImageJ software from the NIH (Bethesda, MD).

[2] = test system: caspase 9 in MDA-MB-231 cells; assay: Activity of caspase 9, MDA-MB-231; type: cell-based, human; settings: MDA-MB-231, 0.5 µM, 24 h
Experimental: as §1

[3] = test system: beclin-1 in MDA-MB-231 cells; assay: Anti-beclin-1 antibody flow cytometry, MDA-MB-231; type: cell-based, human; settings: MDA-MB-231, 0.5 µM, 24 h
Experimental: The fixation and permeabilisation were performed as described above. Cells were resuspended in 100 µL of diluted primary antibody (1:100 in PBS, anti-beclin 1 antibody (2A4) #ab114071, Abcam, Cambridge, UK) and incubated 30 min in the dark at RT. The cells were washed three times by centrifugation in PBS. Then to each probe, 100 µL of diluted fluorochrome-labelled secondary antibody (1:100 in PBS; goat anti-mouse IgG H&L – Alexa Fluor 488 #ab150113, Abcam, Cambridge, UK) was added and incubated 30 min in dark at RT. Then, cells were rinsed with 2.5 mL PBS. In the last step, supernatant was discarded and cells were resuspended in 300 µL PBS and pipetted. The analysis was carried out by flow cytometry.

MDA-MB-231 spheroids = assay: 3D spheroid culture, MDA-MB-231; type: cell-based, human; settings: 0.25 µM and 0.5 µM
Experimental: as §2, §3, §4

[4] = test system: caspase 3/7 in MCF-7 cells; assay: Activity of caspase 3/7, MCF-7; type: cell-based, human; settings: MCF-7, 24 h; cell line does not express caspase 3
Experimental: as §1

Bax in MCF-7 cells = assay: Anti-Bax antibody flow cytometry, MCF-7; type: cell-based, human; settings: 24 h
Experimental: (§5) To evaluate the molecular mechanism of induction of apoptosis of tested compounds, the level of p53, NF-κB, mTOR, Bax, and beclin-1 was measured using appropriate antibody according to the manufacturer’s instruction. In brief, tryspinised cells were centrifuged, then supernatant was discarded, and cells were suspended in 4% FA (formaldehyde). Prepared samples were incubated 15 min at RT. Following incubation, the 2.5 mL PBS was added to each sample and centrifuged. Then, supernatant was discarded, and cells were resuspended in 90% ice-cold methanol to perform permeabilisation and left for 1 h in ice. To remove methanol, cells were rinsed with excess PBS by centrifugation. Following centrifugation, the supernatant was discarded. Then, cells were resuspended in 100 µL of appropriate diluted (1:100 in PBS) antibody conjugate (p53 (7F5) Rabbit mAb – Alexa Fluor 488 Conjugate #5429 Cell Signalling Technology, Danvers, MA; NF-κB p65 (D14E12) XP Rabbit mAb – Alexa Fluor 647 Conjugate #8801 Cell Signalling Technology, Danvers, MA; mTOR (7C10) Rabbit mAB – Alexa Fluor 647 #5048 Cell Signalling Technology, Danvers, MA; FITC Anti-Bax antibody (T22-A) #ab139543, Abcam, Cambridge, UK) and incubated 1 h in the dark at RT. Afterwards, cells were washed by centrifugation in 2 mL of incubation buffer. Finally, supernatant was removed and 300 µL PBS was added to each sample and pipetted. The analysis was performed by flow cytometry (BD FACSCanto II, Becton Dickinson Biosciences Systems, San Jose, CA) using FACSDiva software ver. 6.1.3.

[5] = test system: caspase 10 in MDA-MB-231 cells; assay: Activity of caspase 10, MDA-MB-231; type: cell-based, human; settings: 24 h
Experimental: as §1

p53 in MDA-MB-231 cells = assay: Anti-p53 antibody flow cytometry, MDA-MB-231; type: cell-based, human; settings: MDA-MB-231, 0.25 µM and 0.5 µM, 24 h
Experimental: as §5, with “The analysis was performed by flow cytometry (BD FACSCanto II, Becton Dickinson Biosciences Systems, San Jose, CA) using FACSDiva software ver. 6.1.3.” left out

in vitro = settings: human

## Cc1nn(-c2ccc(S(=O)(=O)N[C@@H](CO)Cc3ccccc3)cc2)c2nn3nnnc3nc12 [Compound 3b, (R)-N-(1-hydroxy-3-phenylpropan-2-yl)-4-(7-methyl-5H-pyrazolo[4,3-e]tetrazolo[1,5-b][1,2,4]triazin-6-yl)benzenesulfonamide]
[1]; MDA-MB-231, 0.25 µM
  apoptotic cells: 11.8 ± 1.3%
[1]; MDA-MB-231, 0.5 µM
  early and late apoptotic cells: 29.5 ± 0.9%
Caspase 9 in MCF-7 cells
  percentage of active form of caspase 9: 72.1 ± 2.3%
ROS in MDA-MB-231 cells; MDA-MB-231, 0.25 µM
  cells with ROS: 7.0 ± 0.6%
ROS in MDA-MB-231 cells; MDA-MB-231, 0.5 µM
  increase of ROS level compared to control: four
  cells with ROS: 9.4 ± 0.7%
MCF-7 spheroids; 0.25 µM and 0.5 µM
  effect on spheroid formation (in words): slower formation of spheroids compared to untreated cells
MCF-7 spheroids; 0.5 µM, 24 h
  spheroids smaller compared to the control: approximately 86.37 ± 7.7%
[2]
  cells with active caspase 9: 55.9 ± 1.2%
[3]
  cells with active beclin-1: 8.1 ± 0.1%
MDA-MB-231 spheroids
  effect on spheroid formation (in words): slower formation of spheroids compared to untreated cells
[4]
  effect on executive caspase 7 (in words): increase in activity of executive caspase 7
Bax in MCF-7 cells; MCF-7, 0.25 µM
  cells with active Bax: 46.4 ± 6.6%
Bax in MCF-7 cells; MCF-7, higher concentration (0.5 µM)
  cells with active Bax: 63.0 ± 1.6%
[5]; MDA-MB-231, 0.25 µM
  cells with active caspase 10: 21.2 ± 1.4%
[5]; MDA-MB-231, 0.5 µM
  cells with active caspase 10: 50.8 ± 3.8%
p53 in MDA-MB-231 cells
  effect on p53 (in words): activates p53
In vitro
  IC50 at 24 h: 2.3 ± 0.04 µM
